Calls of active or inactive are those of the source.
Columns and labels:
NADPH oxidase 1 [1] = target: T1, NADPH oxidase 1 (Homo sapiens, UniProt Q9Y5S8); assay type: functional, cell-based
T1 sequence (Q9Y5S8 whole entry): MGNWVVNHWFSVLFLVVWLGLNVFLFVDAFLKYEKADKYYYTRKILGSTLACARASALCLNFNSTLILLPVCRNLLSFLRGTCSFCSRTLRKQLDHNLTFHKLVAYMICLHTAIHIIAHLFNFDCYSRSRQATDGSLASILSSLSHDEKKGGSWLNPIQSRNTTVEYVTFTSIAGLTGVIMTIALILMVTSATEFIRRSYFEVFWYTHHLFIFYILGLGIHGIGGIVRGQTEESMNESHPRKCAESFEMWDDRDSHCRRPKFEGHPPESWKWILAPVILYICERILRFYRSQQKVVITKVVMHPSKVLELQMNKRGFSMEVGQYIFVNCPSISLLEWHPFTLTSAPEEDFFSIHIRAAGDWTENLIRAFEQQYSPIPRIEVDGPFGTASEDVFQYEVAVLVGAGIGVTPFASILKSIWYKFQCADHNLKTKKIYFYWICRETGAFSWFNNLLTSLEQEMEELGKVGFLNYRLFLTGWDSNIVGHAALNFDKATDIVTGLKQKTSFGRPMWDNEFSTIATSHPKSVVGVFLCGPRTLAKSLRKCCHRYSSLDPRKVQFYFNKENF

[2] = target: T2, Rac GTPase-activating protein 1 (Homo sapiens, UniProt Q9H0H5); assay: MgcRacGAP GTPase-activating activity inhibitors, confirmation, biochemical, ADP Hunter fluorescence, primary and confirmatory (AID 624330); assay type: functional
T2 sequence (Q9H0H5 whole entry): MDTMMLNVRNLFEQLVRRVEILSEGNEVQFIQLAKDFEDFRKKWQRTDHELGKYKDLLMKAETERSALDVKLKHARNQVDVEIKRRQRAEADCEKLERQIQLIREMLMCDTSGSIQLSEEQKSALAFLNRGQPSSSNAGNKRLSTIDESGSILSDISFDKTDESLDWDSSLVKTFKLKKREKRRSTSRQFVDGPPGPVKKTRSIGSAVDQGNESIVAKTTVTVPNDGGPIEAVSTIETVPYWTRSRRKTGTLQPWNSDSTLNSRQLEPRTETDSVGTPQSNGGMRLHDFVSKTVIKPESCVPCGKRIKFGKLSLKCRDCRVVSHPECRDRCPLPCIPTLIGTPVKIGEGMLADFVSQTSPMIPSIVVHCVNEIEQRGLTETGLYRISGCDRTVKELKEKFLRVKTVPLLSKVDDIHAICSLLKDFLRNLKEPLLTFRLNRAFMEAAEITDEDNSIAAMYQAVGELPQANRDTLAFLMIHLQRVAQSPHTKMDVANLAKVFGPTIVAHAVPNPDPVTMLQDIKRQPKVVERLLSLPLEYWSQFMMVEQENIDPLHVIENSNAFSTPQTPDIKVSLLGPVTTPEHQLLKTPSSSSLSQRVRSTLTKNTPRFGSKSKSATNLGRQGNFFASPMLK

NADPH oxidase 1 [3] = target: T1, NADPH oxidase 1; assay: Luminescence-based cell-based dose response assay to identify inhibitors of NADPH oxidase 1 (NOX1).; assay type: functional
Estrogen receptor beta = Estrogen receptor beta (Homo sapiens, UniProt Q92731); assay: ERβ–SRC-3 coactivator interaction inhibitors, confirmation, orthogonal assay, biochemical, ELISA, streptavidin-HRP readout (AID 1060)
Danio rerio = assay: In Vivo Angiogenesis Dose-Response Confirmation. [Related pubchem assays: 732 (Assay preceding this confirmatory assay.)]; assay type: functional, organism-based
Protein RecA = target: T3, Protein RecA (Mycobacterium tuberculosis, UniProt P9WHJ3); assay: Fluorescence Cell-Free Homogeneous Dose Retest to Identify Inhibitors of RecA-Intein Splicing Activity. [Related pubchem assays (depositor defined):AID2097, AID2223, AID489010, AID492950]; assay type: functional
T3 sequence (P9WHJ3 whole entry): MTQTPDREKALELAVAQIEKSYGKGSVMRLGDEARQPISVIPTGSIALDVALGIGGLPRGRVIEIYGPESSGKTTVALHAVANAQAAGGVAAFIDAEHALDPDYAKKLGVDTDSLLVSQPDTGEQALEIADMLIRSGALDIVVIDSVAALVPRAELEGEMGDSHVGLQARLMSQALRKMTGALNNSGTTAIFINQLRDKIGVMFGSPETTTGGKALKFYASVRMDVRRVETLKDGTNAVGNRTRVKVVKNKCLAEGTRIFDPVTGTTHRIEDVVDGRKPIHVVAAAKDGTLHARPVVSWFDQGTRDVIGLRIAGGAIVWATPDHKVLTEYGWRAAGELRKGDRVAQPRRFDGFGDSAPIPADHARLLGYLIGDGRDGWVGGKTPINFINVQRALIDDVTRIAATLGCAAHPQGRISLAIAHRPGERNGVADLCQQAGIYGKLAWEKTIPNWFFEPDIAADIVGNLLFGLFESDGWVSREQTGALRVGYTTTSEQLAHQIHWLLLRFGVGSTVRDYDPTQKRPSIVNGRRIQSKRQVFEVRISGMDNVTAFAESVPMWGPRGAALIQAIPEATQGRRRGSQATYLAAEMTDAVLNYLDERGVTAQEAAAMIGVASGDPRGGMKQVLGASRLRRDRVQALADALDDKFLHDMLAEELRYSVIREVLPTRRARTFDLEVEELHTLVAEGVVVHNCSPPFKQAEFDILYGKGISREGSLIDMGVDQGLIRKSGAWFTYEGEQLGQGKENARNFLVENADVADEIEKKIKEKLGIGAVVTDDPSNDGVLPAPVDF

[4] = non-specific cell cytotoxicity, dose response, cytotoxicity control for PAX8 inhibitor project, plate reader, dry powder samples (AID 743021); assay type: functional, cell-based
cells = assay type: functional
[5] = target: T4, Heat shock factor protein 1 (Mus musculus, UniProt P38532); assay: HSF1 potentiators in luciferase reporter cells, confirmation, cell-based, NIH3T3, luminescence, dose retest (AID 435004); assay type: functional;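 also: stress induced by proteasome inhibitor MG132 added 30 min after compound; luciferase reporter driven by HSF1 response element in NIH3T3 cells; actives raise luminescence as potentiators of the MG132 stress response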
T4 sequence (P38532 whole entry): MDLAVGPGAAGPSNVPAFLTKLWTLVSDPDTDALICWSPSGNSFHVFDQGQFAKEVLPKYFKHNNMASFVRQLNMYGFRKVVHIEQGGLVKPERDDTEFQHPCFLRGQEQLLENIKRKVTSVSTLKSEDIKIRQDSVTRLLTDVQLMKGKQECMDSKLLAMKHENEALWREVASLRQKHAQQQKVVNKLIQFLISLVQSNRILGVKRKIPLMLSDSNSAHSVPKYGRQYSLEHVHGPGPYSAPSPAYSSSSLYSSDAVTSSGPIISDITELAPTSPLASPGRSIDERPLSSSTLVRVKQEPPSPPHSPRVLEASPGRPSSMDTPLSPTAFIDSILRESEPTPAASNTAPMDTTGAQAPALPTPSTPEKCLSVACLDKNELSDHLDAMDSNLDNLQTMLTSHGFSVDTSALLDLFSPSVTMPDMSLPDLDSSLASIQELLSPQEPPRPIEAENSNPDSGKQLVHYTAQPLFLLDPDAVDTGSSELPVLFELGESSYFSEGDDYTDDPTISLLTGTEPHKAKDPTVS

[6] = Luminescent dose response cell-based high throughput screening assay for inhibitors of the Janus kinase 2 mutant JAK2V617F. [Related pubchem assays: 1446 (Primary screen.), 1521 (Confirmation assay.), 1486 (Counter screen.)]; assay type: functional
[7] = HepG2 cell cytotoxicity, dose response, cytotoxicity control for non-replicating M. tuberculosis project (AID 489018); assay type: functional; conditions: Mycobacterium tuberculosis
[8] = Vero E6 cell cytotoxicity, dose response, cytotoxicity control for non-replicating M. tuberculosis project, secondary assay (AID 492998); assay type: functional, VeroE6; conditions: Vero C1008
[9] = Fluorescence-based cell-based high throughput dose response assay for inhibitors of the interaction of nucleotide-binding oligomerization domain containing 2 (NOD2) and the receptor-interacting serine-threonine kinase 2 (RIPK2).; assay type: functional; conditions: Homo sapiens
[10] = THP-1 cell cytotoxicity, dose response, cytotoxicity control for non-replicating M. tuberculosis project (AID 489025); assay type: functional
[11] = target: T5, Replicative DNA helicase DnaB (Mycobacterium tuberculosis, UniProt P9WMR3); assay: DnaB intein splicing inhibitors, dose response, biochemical, cell-free fluorescence (AID 449749); assay type: functional
T5 sequence (P9WMR3 whole entry): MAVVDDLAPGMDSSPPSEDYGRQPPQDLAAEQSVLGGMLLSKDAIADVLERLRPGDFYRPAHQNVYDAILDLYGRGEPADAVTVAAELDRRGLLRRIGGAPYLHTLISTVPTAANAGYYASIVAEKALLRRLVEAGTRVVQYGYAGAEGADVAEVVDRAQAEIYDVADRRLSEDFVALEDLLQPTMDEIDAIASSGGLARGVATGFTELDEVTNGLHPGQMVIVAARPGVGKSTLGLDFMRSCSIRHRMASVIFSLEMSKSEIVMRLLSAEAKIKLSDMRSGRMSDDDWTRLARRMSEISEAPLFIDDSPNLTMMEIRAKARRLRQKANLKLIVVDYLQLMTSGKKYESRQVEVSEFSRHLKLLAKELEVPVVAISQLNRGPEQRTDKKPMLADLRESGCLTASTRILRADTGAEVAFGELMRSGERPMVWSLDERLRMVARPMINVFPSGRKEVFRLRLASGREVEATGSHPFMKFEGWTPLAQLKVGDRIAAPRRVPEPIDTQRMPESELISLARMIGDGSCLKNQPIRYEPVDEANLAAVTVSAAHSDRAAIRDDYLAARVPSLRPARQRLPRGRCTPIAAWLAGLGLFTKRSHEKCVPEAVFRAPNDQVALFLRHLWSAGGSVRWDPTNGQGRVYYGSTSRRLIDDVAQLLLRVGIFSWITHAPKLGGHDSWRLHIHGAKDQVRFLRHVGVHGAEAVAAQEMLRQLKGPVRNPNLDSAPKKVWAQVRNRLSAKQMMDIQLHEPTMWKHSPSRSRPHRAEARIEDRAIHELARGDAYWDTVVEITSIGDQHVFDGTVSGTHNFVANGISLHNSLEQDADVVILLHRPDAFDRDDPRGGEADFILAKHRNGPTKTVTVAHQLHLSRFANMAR

Paired box protein Pax-8 = Paired box protein Pax-8 (Homo sapiens, UniProt Q06710); assay: inhibitors of PAX8-driven TPO luciferase reporter, dose response, RMG-I cells, cherry-pick (AID 687027); assay type: functional, cell-based;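 also: luciferase reporter driven by Pax8 target thyroperoxidase promoter measured by SteadyGlo luminescence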
[12] = target: Voltage-gated inwardly rectifying potassium channel KCNH2 (Homo sapiens, UniProt Q12809); assay: hERG protection from proarrhythmic block, potency, dose response, cell-based, thallium flux (AID 2121); assay type: ADME
[13] = NIH-3T3 fibroblast cytotoxicity, dose response, cytotoxicity control, cell-based, fluorescence, Alamar Blue, secondary assay (AID 2327); assay type: functional;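 also: NIH-3T3 mouse fibroblasts cultured with fluconazole at 8 µg/mL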
[14] = C. albicans growth with fluconazole, confirmation, fluorescence, retest (AID 2467); assay type: functional, cell-based
[15] = target: Sphingosine 1-phosphate receptor 2 (Homo sapiens, UniProt O95136); assay: Dose Response Cell Based Assay for Agonists of the S1P2 Receptor of Purchased Analogues. [Related pubchem assays: 729, 843, 854, 736 ]; assay type: functional
Cytochrome P450 2C9 = Cytochrome P450 2C9 (Homo sapiens, UniProt P11712); conditions: Potency
Cytochrome P450 2C19 = Cytochrome P450 2C19 (Homo sapiens, UniProt P33261); assay: qHTS Assay for Inhibitors and Substrates of Cytochrome P450 2C19. [Related pubchem assays: 410 ]; assay type: ADME; conditions: read-out: Potency
Caspase-6 = Caspase-6 (Homo sapiens, UniProt P55212); assay: human caspase-6 inhibitors, dose response, biochemical, VEID-R110 fluorescence, cherry-pick (AID 720632)
[16] = inhibitors of Bluetongue virus cytopathic effect, confirmation, arbovirus, BSR cells (AID 1250); assay type: functional;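 also: protection from viral cytopathic effect measured as cell viability by ATP luminescence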
[17] = microbe, parasite or virus in culture; assay type: functional; conditions: Mycobacterium tuberculosis
[18] = target: Neuropeptide Y receptor type 1 (Homo sapiens, UniProt P25929); assay: NPY-Y1 receptor antagonist potency, dose response, cell-based (AID 1277); assay type: functional
[19] = target: Neuropeptide Y receptor type 2 (Homo sapiens, UniProt P49146); assay: NPY-Y2 antagonist potency, selectivity check, dose response, counter-screen for NPY-Y1 antagonist project, cell-based (AID 1278); assay type: functional
Galanin receptor type 2 = Galanin receptor type 2 (Homo sapiens, UniProt O43603); assay: Dose Response cell-based high-throughput screening assay to identify antagonists of galanin receptor 2 (GALR2). [Related pubchem assays: 828, 866 ]; assay type: functional
Galanin receptor type 2, sequence (O43603 whole entry): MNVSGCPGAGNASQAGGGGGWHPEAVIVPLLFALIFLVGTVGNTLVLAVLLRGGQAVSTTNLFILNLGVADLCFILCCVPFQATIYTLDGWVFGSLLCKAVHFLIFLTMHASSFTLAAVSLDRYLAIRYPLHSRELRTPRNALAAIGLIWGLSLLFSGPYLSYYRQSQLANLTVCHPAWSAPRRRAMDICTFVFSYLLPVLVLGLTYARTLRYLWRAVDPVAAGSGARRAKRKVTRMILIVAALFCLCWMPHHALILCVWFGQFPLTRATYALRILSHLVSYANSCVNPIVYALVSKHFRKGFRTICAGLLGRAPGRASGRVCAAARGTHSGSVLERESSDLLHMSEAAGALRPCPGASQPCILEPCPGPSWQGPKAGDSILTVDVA

Paired box protein Pax-8, sequence (Q06710 whole entry): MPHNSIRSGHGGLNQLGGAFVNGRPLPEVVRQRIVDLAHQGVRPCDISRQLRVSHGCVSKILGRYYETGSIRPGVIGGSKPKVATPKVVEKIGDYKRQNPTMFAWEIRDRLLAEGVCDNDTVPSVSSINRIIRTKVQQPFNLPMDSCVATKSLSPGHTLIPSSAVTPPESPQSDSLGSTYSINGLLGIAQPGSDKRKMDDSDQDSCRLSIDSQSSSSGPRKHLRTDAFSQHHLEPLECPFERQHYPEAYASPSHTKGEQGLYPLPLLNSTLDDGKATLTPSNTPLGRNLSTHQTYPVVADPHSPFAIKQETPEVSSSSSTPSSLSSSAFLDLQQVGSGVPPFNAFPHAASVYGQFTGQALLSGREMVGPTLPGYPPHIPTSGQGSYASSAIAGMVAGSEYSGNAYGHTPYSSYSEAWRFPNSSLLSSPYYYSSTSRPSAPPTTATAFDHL
Sphingosine 1-phosphate receptor 2, sequence (O95136 whole entry): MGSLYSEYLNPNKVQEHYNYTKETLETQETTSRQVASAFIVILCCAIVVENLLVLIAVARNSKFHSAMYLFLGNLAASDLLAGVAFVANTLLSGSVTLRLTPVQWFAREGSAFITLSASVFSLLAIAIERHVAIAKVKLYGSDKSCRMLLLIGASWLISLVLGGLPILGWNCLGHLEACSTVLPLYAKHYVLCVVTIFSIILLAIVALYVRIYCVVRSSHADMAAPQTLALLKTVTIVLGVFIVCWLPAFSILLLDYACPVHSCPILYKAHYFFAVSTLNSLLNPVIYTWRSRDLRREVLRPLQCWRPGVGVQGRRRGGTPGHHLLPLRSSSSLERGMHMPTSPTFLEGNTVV
Caspase-6, sequence (P55212 24-179 limits assumed): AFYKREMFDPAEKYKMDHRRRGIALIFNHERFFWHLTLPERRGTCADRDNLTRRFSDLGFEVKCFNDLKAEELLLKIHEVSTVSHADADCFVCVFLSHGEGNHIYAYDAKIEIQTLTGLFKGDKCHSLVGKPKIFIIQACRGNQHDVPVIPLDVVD
Caspase-6, sequence (P55212 194-293 limits assumed): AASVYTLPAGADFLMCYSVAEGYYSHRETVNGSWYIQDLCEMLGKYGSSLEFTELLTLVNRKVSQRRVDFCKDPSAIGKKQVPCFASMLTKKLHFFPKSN
Neuropeptide Y receptor type 2, sequence (P49146 whole entry): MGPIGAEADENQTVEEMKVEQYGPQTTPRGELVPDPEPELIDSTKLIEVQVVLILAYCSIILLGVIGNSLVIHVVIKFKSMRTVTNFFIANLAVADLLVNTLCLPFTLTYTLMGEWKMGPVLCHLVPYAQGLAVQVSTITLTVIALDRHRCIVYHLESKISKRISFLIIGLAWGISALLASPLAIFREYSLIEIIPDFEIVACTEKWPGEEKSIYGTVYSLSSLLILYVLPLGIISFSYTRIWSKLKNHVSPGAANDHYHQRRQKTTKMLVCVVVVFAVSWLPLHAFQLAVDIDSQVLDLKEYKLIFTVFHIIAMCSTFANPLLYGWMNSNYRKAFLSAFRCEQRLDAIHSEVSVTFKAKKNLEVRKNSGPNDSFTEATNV
Voltage-gated inwardly rectifying potassium channel KCNH2, sequence (Q12809 whole entry): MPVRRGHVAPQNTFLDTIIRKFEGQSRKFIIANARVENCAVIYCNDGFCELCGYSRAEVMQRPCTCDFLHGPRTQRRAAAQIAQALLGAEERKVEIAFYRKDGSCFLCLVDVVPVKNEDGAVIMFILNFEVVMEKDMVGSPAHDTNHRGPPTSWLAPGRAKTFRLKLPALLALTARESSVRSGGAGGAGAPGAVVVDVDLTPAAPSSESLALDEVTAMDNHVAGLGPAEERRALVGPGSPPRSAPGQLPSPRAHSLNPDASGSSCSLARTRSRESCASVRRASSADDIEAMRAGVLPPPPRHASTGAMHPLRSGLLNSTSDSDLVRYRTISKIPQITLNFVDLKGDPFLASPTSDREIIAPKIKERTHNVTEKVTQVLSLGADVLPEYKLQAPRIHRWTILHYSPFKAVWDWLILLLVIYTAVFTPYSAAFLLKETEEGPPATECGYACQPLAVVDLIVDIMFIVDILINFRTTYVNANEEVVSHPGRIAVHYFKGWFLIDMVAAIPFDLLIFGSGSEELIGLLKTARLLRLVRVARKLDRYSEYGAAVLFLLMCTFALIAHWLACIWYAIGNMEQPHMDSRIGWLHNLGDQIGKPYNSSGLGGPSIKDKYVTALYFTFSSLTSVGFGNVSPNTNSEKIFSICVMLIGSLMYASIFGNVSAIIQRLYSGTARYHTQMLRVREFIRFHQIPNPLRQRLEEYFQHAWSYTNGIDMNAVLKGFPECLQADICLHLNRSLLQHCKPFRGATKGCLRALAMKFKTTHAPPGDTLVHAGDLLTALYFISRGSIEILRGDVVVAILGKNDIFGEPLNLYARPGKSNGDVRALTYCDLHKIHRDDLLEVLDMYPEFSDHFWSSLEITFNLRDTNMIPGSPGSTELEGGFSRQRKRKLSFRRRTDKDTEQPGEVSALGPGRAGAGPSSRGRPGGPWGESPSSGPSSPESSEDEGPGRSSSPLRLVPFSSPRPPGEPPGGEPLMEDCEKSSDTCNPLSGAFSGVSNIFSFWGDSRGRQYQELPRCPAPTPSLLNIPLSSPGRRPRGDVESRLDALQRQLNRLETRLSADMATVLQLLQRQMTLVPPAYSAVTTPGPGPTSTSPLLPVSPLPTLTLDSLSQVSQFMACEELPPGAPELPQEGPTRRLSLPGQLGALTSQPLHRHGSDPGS
Estrogen receptor beta, sequence (Q92731 whole entry): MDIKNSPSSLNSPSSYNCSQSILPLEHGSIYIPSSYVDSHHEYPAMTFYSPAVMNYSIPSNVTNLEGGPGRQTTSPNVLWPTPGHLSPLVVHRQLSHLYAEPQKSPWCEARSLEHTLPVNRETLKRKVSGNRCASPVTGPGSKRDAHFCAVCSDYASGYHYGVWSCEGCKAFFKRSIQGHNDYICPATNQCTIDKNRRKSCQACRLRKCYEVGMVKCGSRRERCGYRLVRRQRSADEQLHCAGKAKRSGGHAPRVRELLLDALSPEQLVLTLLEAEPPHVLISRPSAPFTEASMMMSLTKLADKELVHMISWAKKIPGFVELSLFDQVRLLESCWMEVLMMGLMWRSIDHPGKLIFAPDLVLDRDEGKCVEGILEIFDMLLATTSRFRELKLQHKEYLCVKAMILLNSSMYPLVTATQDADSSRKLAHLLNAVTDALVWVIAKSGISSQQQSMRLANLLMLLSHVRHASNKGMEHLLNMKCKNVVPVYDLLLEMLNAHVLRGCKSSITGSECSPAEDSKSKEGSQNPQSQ
Cytochrome P450 2C9, sequence (P11712 whole entry): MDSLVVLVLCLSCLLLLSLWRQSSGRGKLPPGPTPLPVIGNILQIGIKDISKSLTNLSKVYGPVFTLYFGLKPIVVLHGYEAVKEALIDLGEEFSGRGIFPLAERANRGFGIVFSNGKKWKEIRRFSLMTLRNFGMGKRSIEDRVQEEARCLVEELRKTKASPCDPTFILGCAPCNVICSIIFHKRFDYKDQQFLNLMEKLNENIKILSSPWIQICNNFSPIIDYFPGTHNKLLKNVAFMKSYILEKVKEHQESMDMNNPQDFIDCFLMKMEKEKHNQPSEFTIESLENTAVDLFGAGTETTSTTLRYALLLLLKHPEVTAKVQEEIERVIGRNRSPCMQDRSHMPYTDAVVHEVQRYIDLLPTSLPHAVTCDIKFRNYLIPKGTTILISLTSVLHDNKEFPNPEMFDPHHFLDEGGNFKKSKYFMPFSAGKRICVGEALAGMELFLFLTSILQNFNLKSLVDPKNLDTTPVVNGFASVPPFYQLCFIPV
Neuropeptide Y receptor type 1, sequence (P25929 whole entry): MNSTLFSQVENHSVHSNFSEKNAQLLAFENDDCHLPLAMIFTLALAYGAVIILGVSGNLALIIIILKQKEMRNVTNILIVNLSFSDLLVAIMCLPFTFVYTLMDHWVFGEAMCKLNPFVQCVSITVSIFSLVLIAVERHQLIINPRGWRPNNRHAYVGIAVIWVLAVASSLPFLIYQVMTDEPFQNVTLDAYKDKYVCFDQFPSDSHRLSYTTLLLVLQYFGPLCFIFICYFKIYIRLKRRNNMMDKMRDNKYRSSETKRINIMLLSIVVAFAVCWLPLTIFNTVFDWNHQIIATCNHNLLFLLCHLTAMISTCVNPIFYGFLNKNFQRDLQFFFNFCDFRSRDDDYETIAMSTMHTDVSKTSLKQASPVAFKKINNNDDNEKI
Cytochrome P450 2C19, sequence (P33261 whole entry): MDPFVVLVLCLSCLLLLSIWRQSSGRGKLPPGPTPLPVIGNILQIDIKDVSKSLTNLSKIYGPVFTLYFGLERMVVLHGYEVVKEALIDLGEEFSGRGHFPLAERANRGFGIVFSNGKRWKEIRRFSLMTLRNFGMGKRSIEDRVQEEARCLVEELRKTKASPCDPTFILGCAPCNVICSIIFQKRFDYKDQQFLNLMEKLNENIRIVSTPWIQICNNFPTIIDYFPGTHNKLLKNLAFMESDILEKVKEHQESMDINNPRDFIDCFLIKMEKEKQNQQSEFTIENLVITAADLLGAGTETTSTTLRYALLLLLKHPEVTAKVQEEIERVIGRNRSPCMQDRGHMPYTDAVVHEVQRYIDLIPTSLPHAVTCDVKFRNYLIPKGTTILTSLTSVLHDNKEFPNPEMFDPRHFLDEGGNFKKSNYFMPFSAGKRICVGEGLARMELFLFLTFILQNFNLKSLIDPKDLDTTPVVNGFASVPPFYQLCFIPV

SMILES: COc1ccc(NC(=O)Nc2ccc(N(C)C)cc2)cc1
- IC50 (NADPH oxidase 1 [1]): 0.432 µM (active)
- IC50 [2]: 23.5 µM (active)
- IC50 (NADPH oxidase 1 [3]): 0.156 µM (active)
- IC50 (Estrogen receptor beta): 14.4 µM (not active)

SMILES: O=C1Nc2ccc(F)cc2/C1=C1/Nc2ccc(Br)cc2C1=O
- IC50 (Danio rerio): 0.35 µM (not active)

SMILES: Cc1nc2c(=O)n(C)c(=O)n(C)c2nc1Cl
- EC50 (Protein RecA): 8.48 µM (active)
- AC50 [4]: 32.9 µM (active)
- IC50 (cells): 6.22 µM (active)
- EC50 [5]: 14.3 µM (active)
- IC50 [6]: 1.37 µM (active)
- CC50 [7]: 10.6 µM (active)
- CC50 [8]: 7.41 µM (active)
- IC50 [9]: 4.73 µM (active)
- CC50 [10]: 12.1 µM (active)
- AC50 [11]: 17.3 µM (active)
- AC50 (Paired box protein Pax-8): 8.88 µM (active)

SMILES: O=C(Nc1nc(=O)c2ccccc2s1)c1ccc(Cl)cc1
- EC50 [12]: 0.84 µM (active)
- EC50 [13]: > 150 µM (inactive)
- EC50 [14]: > 38 µM (not active)

SMILES: Cc1sc2ncn(CC(=O)c3cc(C)n(Cc4ccccc4)c3C)c(=O)c2c1C
- EC50 [15]: > 30 µM (not active)

SMILES: CC(=O)[C@H]1[C@H]2[C@H](C(=O)[C@@H]3OC[C@H]2O3)[C@@H]2c3ccccc3C=CN12
- AC50 (Cytochrome P450 2C9): 31.6 µM (inconclusive)
- AC50 (Cytochrome P450 2C19): 31.6 µM (inconclusive)

SMILES: O=C(O)C1CCCCC1C(=O)Nc1nc(-c2ccc(Cl)s2)cs1 (stereo not given)
- AC50 (Caspase-6): 32.9 µM (active)
- IC50 [16]: 38.5 µM (active)

SMILES: Cc1ccc(-n2cc(CNCCn3nc(C)cc3C)c(-c3ccc(F)cc3)n2)cc1
- CC50 [17]: > 40 µM (active)
- IC50 [18]: 10.6 µM (not active)
- IC50 (cells): 4.38 µM (active)
- CC50 [10]: 23.5 µM (active)
- IC50 [19]: > 35 µM (not active)

SMILES: O=C(/C=C/c1ccc(Cl)cc1)NC(=S)Nc1ccc(NC(=O)c2ccco2)cc1
- IC50 (Galanin receptor type 2): 6.76 µM (active)

— ChEMBL document CHEMBL1201862, “PubChem BioAssay data set” (2004)
